Laboratory results: US9073821B2, “Hydroxamic acid derivative” (priority 2010, dated 2015)
Read-outs that look alike come from different tables or passages of the source.

Target: Pseudomonas aeruginosa LpxC enzyme (Pseudomonas aeruginosa (strain ATCC 15692 / DSM 22644 / CIP 104116 / JCM 14847 / LMG 12228 / 1C / PRS 101 / PAO1), UniProt P47205)
Experiment: biochemical
Type: biochemical
[1] = inhibitory activity on Pseudomonas aeruginosa LpxC enzyme, class symbols A/B/C, read-out: Enzyme inhibitory activity
[2] = class symbols A/B/C by IC50, Table 3, read-out: Enzyme inhibitory activity (inhibitory activity on Pseudomonas aeruginosa LpxC enzyme)

IC50 [1]	IC50 [2]	SMILES
< 10 nM	–	CNC(=O)C(C(=O)NO)N(C)C(=O)c1ccc(C#C/C=C/c2ccc(OC)nc2)cc1 (stereo not shown) [Compound 478, N-hydroxy-2-[({4-[(3E)-4-(6-methoxypyridin-3-yl)but-3-en-1-yn-1-yl]phenyl}carbonyl)(methyl)amino]-N′-methylpropanediamide]
10 to 100 nM	–	CCN(C(=O)c1ccc(-c2ccccc2)cc1)C(C(=O)NC)C(=O)NO (stereo not shown) [Compound 159, 2-[(biphenyl-4-ylcarbonyl)(ethyl)amino]-N-hydroxy-N′-methylpropanediamide]
10 to 100 nM	–	CC(C)OCCNC(=O)C(NC(=O)c1ccc(-c2ccc(OCCO)cc2)cc1)C(=O)NO (stereo not shown) [Compound 10, N-hydroxy-2-({[4′-(2-hydroxyethoxy)biphenyl-4-yl]carbonyl}amino)-N′-[2-(propan-2-yloxy)ethyl]propanediamide]
< 10 nM	–	CNC(=O)C(C(=O)NO)N(C)C(=O)c1ccc(C#Cc2ccc(CN3Cc4ccccc4C3)cc2)cc1 (stereo not shown) [Compound 489, 2-{[(4-{[4-(1,3-dihydro-2H-isoindol-2-ylmethyl)phenyl]ethynyl}phenyl)carbonyl](methyl)amino}-N-hydroxy-N′-methylpropanediamide]
10 to 100 nM	–	CN(C(=O)c1ccc(-c2ccccc2)cc1)C(C(=O)NO)C(=O)NCc1cccnc1 (stereo not shown) [Compound 177, 2-[(biphenyl-4-ylcarbonyl)(methyl)amino]-N-hydroxy-N′-(pyridin-3-ylmethyl)propanediamide]
–	10 to 100 nM	CNC(=O)C(C(=O)NO)N(C)C(=O)c1ccc(C#CC2=CCCCC2)cc1 (stereo not shown) [Compound 523, 2-[{[4-(cyclohex-1-en-1-ylethynyl)phenyl]carbonyl}(methyl)amino]-N-hydroxy-N′-methylpropanediamide]
< 10 nM	–	CNC(=O)C(C(=O)NO)N(C)C(=O)c1ccc(-c2ccc(NCCCOC)cc2)cc1 (stereo not shown) [Compound 228, N-hydroxy-2-[({4′-[(3-methoxypropyl)amino]biphenyl-4-yl}carbonyl)(methyl)amino]-N′-methylpropanediamide]
< 10 nM	–	CCN(C(=O)c1ccc(-c2ccc(NC)cc2)cc1)C(C(=O)NC)C(=O)NO (stereo not shown) [Compound 235, 2-(ethyl {[4′-(methylamino)biphenyl-4-yl]carbonyl}amino)-N-hydroxy-N′-methylpropanediamide]
–	< 10 nM	CCOC1CN(Cc2cc(C#Cc3ccc(C(=O)N(C)[C@@](C)(C(=O)NC)C(=O)NO)cc3)co2)C1 [Compound 584, (2S)-2-[{[4-({5-[(3-ethoxyazetidin-1-yl)methyl]furan-3-yl}ethynyl)phenyl]carbonyl}(methyl)amino]-N-hydroxy-N′,2-dimethylpropanediamide]
< 10 nM	–	CNC(=O)C(C(=O)NO)N(C)C(=O)c1ccc(C#Cc2ccc3c(c2)CN(C2CC2)C3)cc1 (stereo not shown) [Compound 385, 2-[({4-[(2-cyclopropyl-2,3-dihydro-1H-isoindol-5-yl)ethynyl]phenyl}carbonyl)(methyl)amino]-N-hydroxy-N′-methylpropanediamide]
< 10 nM	–	O=C(NC(C(=O)NO)C(=O)NCC(=O)N1CCCC1)c1ccc(-c2ccc(OCCO)cc2)cc1 (stereo not shown) [Compound 141, N-hydroxy-2-({[4′-(2-hydroxyethoxy)biphenyl-4-yl]carbonyl}amino)-N′-[2-oxo-2-(pyrrolidin-1-yl)ethyl]propanediamide]
10 to 100 nM	–	CNC(=O)C(NC(=O)c1ccc(-c2ccc(OCCOCCOCCO)cc2)cc1)C(=O)NO (stereo not shown) [Compound 13, N-hydroxy-2-{[(4′-{2-[2-(2-hydroxyethoxy)ethoxy]ethoxy}biphenyl-4-yl)carbonyl]amino}-N′-methylpropanediamide]
–	< 10 nM	CNC(=O)C(C(=O)NO)N(C)C(=O)c1ccc(C#CC#Cc2cnn(C)c2)cc1 (stereo not shown) [Compound 511, N-hydroxy-N′-methyl-2-[methyl({4-[4-(1-methyl-1H-pyrazol-4-yl)buta-1,3-diyn-1-yl]phenyl}carbonyl)amino]propanediamide]
< 10 nM	–	CNC(=O)C(C(=O)NO)N(C)C(=O)c1ccc(-c2ccc(OCC3(C)COC3)cc2)cc1 (stereo not shown) [Compound 95, N-hydroxy-N′-methyl-2-[methyl({4′-[(3-methyloxetan-3-yl)methoxy]biphenyl-4-yl}carbonyl)amino]propanediamide]
10 to 100 nM	–	CNC(=O)C(C(=O)NO)N(C)C(=O)c1ccc(-c2ccnc(C)c2)cc1 (stereo not shown) [Compound 451, N-hydroxy-N′-methyl-2-(methyl {[4-(2-methylpyridin-4-yl)phenyl]carbonyl}amino)propanediamide]
–	10 to 100 nM	CNC(=O)C(C(=O)NO)N(C)C(=O)c1ccc(C#Cc2ccc(CN3CC(C)(C)C3)cc2)cc1 (stereo not shown) [Compound 525, 2-[{[4-({4-[(3,3-dimethylazetidin-1-yl)methyl]phenyl}ethynyl)phenyl]carbonyl}(methyl)amino]-N-hydroxy-N′-methylpropanediamide]
10 to 100 nM	–	CNC(=O)C(C(=O)NO)N(C)C(=O)c1ccc(-c2ccc(OCCOCCO)cc2)cc1 (stereo not shown) [Compound 15, N-hydroxy-2-[({4′-[2-(2-hydroxyethoxy)ethoxy]biphenyl-4-yl}carbonyl)(methyl)amino]-N′-methylpropanediamide]

IC50 [1]	IC50 [2]	SMILES
> 100 nM	–	CNC(=O)C(C(=O)NO)N(C)C(=O)c1ccc(OC(F)(F)C(F)F)cc1 (stereo not shown) [Compound 47, N-hydroxy-N′-methyl-2-{methyl[4-(1,1,2,2-tetrafluoroethoxy)benzoyl]amino}propanediamide]
< 10 nM	–	CNC(=O)C(C(=O)NO)N(C)C(=O)c1ccc(-c2ccc(C(C)(F)F)cc2)cc1 (stereo not shown) [Compound 253, 2-[{[4′-(1,1-difluoroethyl)biphenyl-4-yl]carbonyl}(methyl)amino]-N-hydroxy-N′-methylpropanediamide]
–	< 10 nM	CCO/N=C/c1ccc(C#Cc2ccc(C(=O)N(C)C(C(=O)NC)C(=O)NO)cc2)o1 (stereo not shown) [Compound 501, 2-[{[4-({5-[(E)-(ethoxyimino)methyl]furan-2-yl}ethynyl)phenyl]carbonyl}(methyl)amino]-N-hydroxy-N′-methylpropanediamide]
10 to 100 nM	–	CNC(=O)C(C(=O)NO)N(C)C(=O)c1ccc(C#Cc2ccc(CNC3CCCCC3)cc2)cc1 (stereo not shown) [Compound 318, 2-[{[4-({4-[(cyclohexylamino)methyl]phenyl}ethynyl)phenyl]carbonyl}(methyl)amino]-N-hydroxy-N′-methylpropanediamide]
< 10 nM	–	CNC(=O)[C@@](C)(C(=O)NO)N(C)C(=O)c1ccc(-c2ccc(OCCN3CCOCC3)cc2)cc1 [Compound 437, (2S)-N-hydroxy-N′,2-dimethyl-2-[methyl({4′-[2-(morpholin-4-yl)ethoxy]biphenyl-4-yl}carbonyl)amino]propanediamide]
10 to 100 nM	–	CNC(=O)C(C(=O)NO)N(C)C(=O)c1ccc(-c2ccc([C@@H](C)NC(=O)OC(C)(C)C)cc2)cc1 (stereo partly drawn) [Compound 34, tert-butyl[(1R)-1-(4′-{[1-(hydroxyamino)-3-(methylamino)-1,3-dioxopropan-2-yl](methyl)carbamoyl}biphenyl-4-yl)ethyl]carbamate]
< 10 nM	–	O=C(NC(C(=O)NO)C(=O)NCCOc1ccccc1)c1ccc(-c2ccc(OCCO)cc2)cc1 (stereo not shown) [Compound 138, N-hydroxy-2-({[4′-(2-hydroxyethoxy)biphenyl-4-yl]carbonyl}amino)-N′-(2-phenoxyethyl)propanediamide]
10 to 100 nM	–	CNC(=O)C(C(=O)NO)N(C)C(=O)c1ccc(C#Cc2ccc(C(F)(F)F)cc2)cc1 (stereo not shown) [Compound 420, N-hydroxy-N′-methyl-2-{methyl[(4-{[4-(trifluoromethyl)phenyl]ethynyl}phenyl)carbonyl]amino}propanediamide]
10 to 100 nM	–	O=C(NC(C(=O)NO)C(=O)NCC1CNCCO1)c1ccc(-c2ccc(OCCO)cc2)cc1 (stereo not shown) [Compound 162, N-hydroxy-2-({[4′-(2-hydroxyethoxy)biphenyl-4-yl]carbonyl}amino)-N′-(morpholin-2-ylmethyl)propanediamide]
> 100 nM	–	CNC(=O)C(C(=O)NO)N(C)C(=O)c1ccc(-c2ccc(CCCO)cc2)cc1O (stereo not shown) [Compound 185, N-hydroxy-2-[{[3-hydroxy-4′-(3-hydroxypropyl)biphenyl-4-yl]carbonyl}(methyl)amino]-N′-methylpropanediamide]
10 to 100 nM	–	CNC(=O)C(C(=O)NO)N(C)C(=O)c1ccc(-c2ccccc2)cc1F (stereo not shown) [Compound 27, 2-{[(3-fluorobiphenyl-4-yl)carbonyl](methyl)amino}-N-hydroxy-N′-methylpropanediamide]
10 to 100 nM	–	CNC(=O)C(NC(=O)c1ccc(-c2ccccc2)cc1)C(=O)NO (stereo not shown) [Compound 110, 2-[(biphenyl-4-ylcarbonyl)amino]-N-hydroxy-N′-methylpropanediamide]
< 10 nM	–	O=C1COc2ccc(CNC(=O)C(NC(=O)c3ccc(-c4ccc(OCCO)cc4)cc3)C(=O)NO)nc2N1 (stereo not shown) [Compound 152, N-hydroxy-2-({[4′-(2-hydroxyethoxy)biphenyl-4-yl]carbonyl}amino)-N′-[(3-oxo-3,4-dihydro-2H-pyrido[3,2-b][1,4]oxazin-6-yl)methyl]propanediamide]
–	< 10 nM	CNC(=O)[C@@](C)(C(=O)NO)N(C)C(=O)c1ccc(C#C/C=C/C2CCOCC2)cc1 [Compound 590, (2S)-N-hydroxy-N′,2-dimethyl-2-(methyl {4-[(3E)-4-(tetrahydro-2H-pyran-4-yl)but-3-en-1-yn-1-yl]benzoyl}amino)propanediamide]
10 to 100 nM	–	CNC(=O)C(C(=O)NO)N(C)C(=O)c1ccc(OCc2ccc(OC)cc2)cc1 (stereo not shown) [Compound 319, N-hydroxy-2-[({4-[(4-methoxybenzyl)oxy]phenyl}carbonyl)(methyl)amino]-N′-methylpropanediamide]
< 10 nM	–	CNC(=O)C(C(=O)NO)N(C)C(=O)c1ccc(-c2ccc3c(c2)cc(COCOC)n3C)cc1 (stereo not shown) [Compound 33, N-hydroxy-2-[(4-{2-[(methoxymethoxy)methyl]-1-methyl-1H-indol-5-yl}benzoyl)(methyl)amino]-N′-methylpropanediamide]
< 10 nM	–	CNC(=O)C(C(=O)NO)N(C)C(=O)c1ccc(-c2ccc(OCCCN3CC(C)OC(C)C3)cc2)cc1 (stereo not shown) [Compound 88, 2-[({4′-[3-(2,6-dimethylmorpholin-4-yl)propoxy]biphenyl-4-yl}carbonyl)(methyl)amino]-N-hydroxy-N′-methylpropanediamide]
